In patent US20200367543A1, “SWEETENER AND FLAVOR COMPOSITIONS, METHODS OF MAKING AND METHODS OF USE THEREOF” (EPC Natural Products Co., Ltd., priority 2018, published 2020):
Read-outs that look alike come from different tables or passages of the source.

Tests used:
[1] = Sensory evaluation of GSGs and SGs, thaumatin, NHDC and combinations (Ex. 255); conditions: combinations of EPCalin and NHDC dissolved in water
Description: 4.5 ppm Thaumatin (equivalent to 10 ppm EPCalin) was dissolved in water. Increasing amounts of NHDC (1-5 ppm) were added to the solution and the sensory properties were evaluated.
50 ppm (GSGs and SGs) were dissolved in water. Increasing amounts of NHDC (1-5 ppm) were added to the solution and the sensory properties were evaluated.
50 ppm (GSGs and SGs) and 4.5 ppm Thaumatin (equivalent to 10 ppm EPCalin) were dissolved in water. Increasing amounts of NHDC (1-5 ppm) were added to the solution and the sensory properties were evaluated.

[2] = compared to sucrose; cited from earlier work
[3] = cited from earlier work; for times sweeter than sucrose: sweetness depends on the tested concentration compared with sucrose; for natural sweetness, times of that of sugar: constituents of monk fruit juice or extract; for Sweetness by weight: compared to sucrose
[4] = Kinetics of reaction in dependence of pH-conditions (degradation of Phe and Reb-A, Gluc, Xyl, Suc) by HPLC/MS
Description: Quantitative evaluation was performed using external standardization.
Kinetics of Reaction in Dependence of pH-Conditions

[5] = Assay to test reducing power, active iron-III reduction (Ex. 64); conditions: 10 mM, 100° C., 0-5.0 h, diluted 1:10
[6] = DPPH radical-scavenging activity (Ex. 65); conditions: 10 mM, 100° C., 0-5.0 h, diluted 1:10
Description: 1 mg 1,1-Diphenyl-2-picrylhydrazyl radical (DPPH)/ml ethanol, dilution to assay concentration were prepared in ethanol (40 μg/mL); Calibration samples were prepared with Ascorbic acid in a concentration of 0-10 μg/mL; as a negative control sample, water was used.
Samples in aqueous solution were used as such or diluted with water.
A 0.1 ml sample (or calibration standard) was mixed with 3.9 ml solution of DPPH
([…]) and reacted while protected from light at room temperature for 30 min. Absorbance was determined at 517 nm against ethanol.
10 mM of amino acid and/or 10 mM sugar were dissolved in 10 ml 0.1 mM KH2PO4-buffer, pH=7.8.
The samples were kept at 100° C. in sealed glass vials (Pyrex 15 ml with screw caps) for 0 (before reaction), 2.5 or 5.0 hours. Thereafter the samples were transferred to an ice water bath and cooled down to room temperature. These samples were diluted 1:10 and used for the test assay for anti-oxidant potential.

## COc1ccc(CCC(=O)c2c(O)cc(O[C@@H]3O[C@H](CO)[C@@H](O)[C@H](O)[C@H]3O[C@@H]3O[C@@H](C)[C@H](O)[C@@H](O)[C@H]3O)cc2O)cc1O [10 ppm NHDC]
[1]
  Sensory evaluation: Sweet, steep onset of sweetness, no lingering

## OC[C@@H](O)[C@@H](O)CO [Erythritol]
[2]
  Energy density: 0.05

## OCC(O)CO [Glycerol]
[2]
  Energy density: 1.075

## CC1(C)[C@@H](O[C@H]2O[C@H](C(=O)O)[C@@H](O)[C@H](O)[C@H]2O[C@@H]2O[C@H](C(=O)O)[C@@H](O)[C@H](O)[C@H]2O)CC[C@]2(C)[C@H]3C(=O)C=C4[C@@H]5C[C@@](C)(C(=O)O)CC[C@]5(C)CC[C@@]4(C)[C@]3(C)CC[C@@H]12 [Glycyrrhizin]
[3]
  times sweeter than sucrose: 30 to 50 times

## OC[C@@H](O)[C@@H](O[C@@H]1O[C@H](CO)[C@H](O)[C@H](O)[C@H]1O)[C@H](O)[C@@H](O)CO [Lactitol]
[2]
  Energy density: 0.5

## O=C(O)[C@H](Cc1ccccc1)NCC(=O)[C@@H](O)[C@H](O)[C@H](O)CO [MRI (Phe-Glu)]
[4]; reaction of Phe and Suc, pH = 5.5, n.d. = not detected
  % formation from degraded Phe: <0.10%
[4]; reaction of Phe and Suc, pH = 7.0, n.d. = not detected
  % formation from degraded Phe: 0.54%
[4]; reaction of Phe and Suc, pH = 8.5, n.d. = not detected
  % formation from degraded Phe: 0.84%

## C=C1CC23CC[C@H]4[C@@](C)(CCC[C@@]4(C)C(=O)OC4O[C@H](C(=O)N[C@H](Cc5ccccc5)C(=O)O)[C@@H](O)[C@H](O)[C@H]4O)[C@@H]2CC(O[C@@H]2O[C@H](CO)[C@@H](O)C(O[C@@H]4O[C@H](CO)[C@@H](O)[C@H](O)[C@H]4O)[C@H]2O[C@@H]2O[C@H](CO)[C@@H](O)[C@H](O)[C@H]2O)C1C3 (stereo partly drawn) [MRI (Phe-Reb-A)]
[4]; reaction of Phe and Reb-A, pH = 5.5, MRI (Phe-Reb-A): all possible isomers included
  % formation from degraded Phe: 10.4%
[4]; reaction of Phe and Reb-A, pH = 7.0, MRI (Phe-Reb-A): all possible isomers included
  % formation from degraded Phe: 11.3%
[4]; reaction of Phe and Reb-A, pH = 8.5, MRI (Phe-Reb-A): all possible isomers included
  % formation from degraded Phe: 14.7%

## OC[C@@H](O)[C@@H](O[C@H]1O[C@H](CO)[C@@H](O)[C@H](O)[C@H]1O)[C@H](O)[C@@H](O)CO [Maltitol]
[2]
  Energy density: 0.525

## OC[C@@H](O)[C@@H](O)[C@H](O)[C@H](O)CO [Mannitol]
[2]
  Energy density: 0.4
[3]
  natural sweetness, times of that of sugar: 0.55-0.65 times

## COc1ccc(CCC(=O)c2c(O)cc(O[C@@H]3O[C@H](CO)[C@@H](O)[C@H](O)[C@H]3O[C@@H]3O[C@@H](C)[C@H](O)[C@@H](O)[C@H]3O)cc2O)cc1O [NHDC, Neohesperidin dihydrochalcone]
[3]; at threshold concentrations
  times sweeter than sugar: 1500-1800 times
[3]; weight-for-weight
  times sweeter than sugar: about 340 times

## C=C1C[C@@]23CC[C@H]4[C@@](C)(CCC[C@@]4(C)C(=O)O[C@@H]4O[C@H](CO)[C@@H](O)[C@H](O)[C@H]4O)[C@@H]2CC[C@]1(O[C@@H]1O[C@H](CO)[C@@H](O)[C@H](O[C@@H]2O[C@H](CO)[C@@H](O)[C@H](O)[C@H]2O)[C@H]1O[C@@H]1O[C@H](CO)[C@@H](O)[C@H](O)[C@H]1O)C3 [Reb-A, Rebaudioside A]
[5]
  anti-oxidant properties (active iron-III reduction): substantial anti-oxidant properties
[6]
  anti-oxidant properties (radical scavenging): substantial anti-oxidant properties

## OC[C@@H](O)[C@@H](O)[C@H](O)[C@@H](O)CO [Sorbitol]
[2]
  Energy density: 0.65

## O=C(CO)[C@@H](O)[C@@H](O)[C@H](O)CO [Tagatose]
[2]
  Energy density: 0.38

## C[C@H](CC[C@@H](O[C@@H]1O[C@H](CO)[C@@H](O)[C@H](O)[C@H]1O[C@@H]1O[C@H](CO)[C@@H](O)[C@H](O)[C@H]1O)C(C)(C)O)[C@H]1CC[C@@]2(C)[C@H]3CC=C4[C@@H](CC[C@H](O[C@@H]5O[C@H](CO[C@@H]6O[C@H](CO)[C@@H](O)[C@H](O)[C@H]6O)[C@@H](O)[C@H](O)[C@H]5O)C4(C)C)[C@]3(C)[C@H](O)C[C@]12C [mogroside IV]
[3]
  natural sweetness, times of that of sugar: 126 times

## C[C@H](CC[C@@H](O[C@@H]1O[C@H](CO[C@@H]2O[C@H](CO)[C@@H](O)[C@H](O)[C@H]2O)[C@@H](O)[C@H](O)[C@H]1O[C@@H]1O[C@H](CO)[C@@H](O)[C@H](O)[C@H]1O)C(C)(C)O)[C@H]1CC[C@@]2(C)[C@@H]3CC=C4[C@@H](CC[C@H](O[C@@H]5O[C@H](CO[C@@H]6O[C@H](CO)[C@@H](O)[C@H](O)[C@H]6O)[C@@H](O)[C@H](O)[C@H]5O)C4(C)C)[C@]3(C)[C@H](O)C[C@]12C [mogroside V]
[3]
  natural sweetness, times of that of sugar: 256-344 times

## O=S(=O)([O-])NC1CCCCC1.[Na+] [sodium cyclamate]
[3]
  times sweeter than sucrose: about 30 times

## OC[C@H]1O[C@H](O[C@]2(CCl)O[C@H](CCl)[C@@H](O)[C@@H]2O)[C@H](O)[C@@H](O)[C@H]1Cl [sucralose]
[3]
  times sweeter than sucrose: about 600 times

## Fructo-oligosaccharide
[3]
  Sweetness by weight: 0.3-0.5

## Isomalt
[2]
  Energy density: 0.5

## Isomalto-oligosaccharide
[3]
  Sweetness by weight: 0.5

## rebaudioside B [Reb B]
[4]; reaction of Phe and Reb-A, pH = 5.5
  % formation from degraded Reb-A: 23.1%
[4]; reaction of Phe and Reb-A, pH = 7.0
  % formation from degraded Reb-A: 22.7%
[4]; reaction of Phe and Reb-A, pH = 8.5
  % formation from degraded Reb-A: 19.1%
